Experimental data published in article PMC3834731 (International journal of antimicrobial agents, 2013).
Marks after values point to notes of the source that are not given here.

How the values were obtained:
Brucella suis 1330 = format: cell-based
[1] = system: B. suis in J774A.1 murine macrophage-like cells; format: cell-based, Brucella suis
Brucella melitensis 16M = format: cell-based
Brucella abortus 2308 = format: cell-based

## H-KFFKFFKFFK-O-gctcatttcgc-NH2 [kdtA]
Brucella suis 1330
  Log CFU/100 μL/well: 1.56 ± 1.10 Log CFU/100 μL/well
  Log reduction: 1.50 ^*
  inhibition of growth of B. suis in culture (in words): significantly inhibited the growth

## H-KFFKFFKFFK-O-ctcatgtcgg-NH2 [acpP]
Brucella suis 1330
  Log CFU/100 μL/well: 3.05 ± 0.10 Log CFU/100 μL/well
  Log reduction: 0.01
[1]
  Log CFU: 3.37 ± 0.18 Log CFU
  Log reduction: +0.09

## H-KFFKFFKFFK-O-catactcttcct-NH2 [Anti-lacZ, reference compound]
Brucella suis 1330
  Log CFU/100 μL/well: 2.83 ± 0.13 Log CFU/100 μL/well
  Log reduction: 0.23
  inhibition of growth of B. suis in culture (in words): did not inhibit the growth
[1]
  Log CFU: 3.45 ± 0.31 Log CFU
  Log reduction: +0.17

## H-KFFKFFKFFK-O-ttcatgcctgt-NH2 [polA]
Brucella suis 1330
  Log CFU/100 μL/well: 0.54 ± 0.09 Log CFU/100 μL/well
  inhibition of growth of B. suis in culture (in words): significantly inhibited the growth
[1]
  Log CFU: 2.27 ± 0.69 Log CFU
  Log reduction: 1.01 ^*
  inhibition of intracellular B. suis (in words): showed significant inhibition
Brucella melitensis 16M
  effectiveness against B. melitensis 16M (in words): effective
Brucella abortus 2308
  effectiveness against B. abortus 2308 (in words): effective

## H-KFFKFFKFFK-O-cattgtgtcgc-NH2 [tsf]
Brucella suis 1330
  Log CFU/100 μL/well: 1.02 ± 0.92 Log CFU/100 μL/well
  Log reduction: 2.04 ^*
  inhibition of growth of B. suis in culture (in words): significantly inhibited the growth

## H-KFFKFFKFFK-O-catttttcgtct-NH2 [asd]
Brucella suis 1330
  Log CFU/100 μL/well: 3.27 ± 0.09 Log CFU/100 μL/well
  inhibition of growth of B. suis in culture (in words): not in Brucella cultures
[1]
  Log CFU: 1.84 ± 0.50 Log CFU
  Log reduction: 1.44 ^*
  inhibition of intracellular B. suis (in words): showed significant inhibition

## H-KFFKFFKFFK-O-catcgtcgctc –NH2 [rpoB]
Brucella suis 1330
  Log CFU/100 μL/well: 0 ^* Log CFU/100 μL/well
  Log CFU/mL: 0 Log CFU/mL
  inhibition of growth of B. suis in culture (in words): significantly inhibited the growth

## H-KFFKFFKFFK-O-cattacagatt-NH2 [dnaG]
Brucella suis 1330
  Log CFU/100 μL/well: 2.91 ± 0.02 Log CFU/100 μL/well
  Log reduction: 0.15
  inhibition of growth of B. suis in culture (in words): not in Brucella cultures
[1]
  Log CFU: 1.78 ± 0.56 Log CFU
  Log reduction: 1.50 ^*
  inhibition of intracellular B. suis (in words): showed significant inhibition

## H-KFFKFFKFFK-O-catatcgtcgga-NH2 [gyrA]
Brucella suis 1330
  Log CFU/100 μL/well: 3.92 ± 0.06 Log CFU/100 μL/well
  Log reduction: 0.23
  inhibition of growth of B. suis in culture (in words): not in Brucella cultures
[1]
  Log CFU: 2.47 ± 0.51 Log CFU
  Log reduction: 0.81 ^*
  inhibition of intracellular B. suis (in words): showed significant inhibition
